Columns and labels:
[1] = tested on: transgenic Arabidopsis thaliana comprising antisense construct of AtKAPAS gene; details: pots filled with sands containing 1 mM biotin; Basta treated 5 times; transformed seeds
Experimental: The pots were treated with Basta 5 times, and then investigated for the growth of Arabidopsis thaliana in every pot.

[2] = molecular target: T1, protein expressed by AtKAPAS gene (KAPA synthase) (Arabidopsis thaliana, UniProt Q8GW43, DEL236-242/L243I); assay type: biochemical; details: substrate pimeroyl CoA, Lineweaver-Burk plot, 30° C., pH 7.5, 340 nm
T1 construct: contains 1410 bp size open reading frame encoding 469 amino acids; made in house; host or cells: E. coli BL21-Gold(DE) transformed with pCKAPA (AtKAPAS cDNA in pCAL-n)
T1 sequence (Q8GW43 other isoform, or with tags, fused parts or gaps DEL236-242/L243I): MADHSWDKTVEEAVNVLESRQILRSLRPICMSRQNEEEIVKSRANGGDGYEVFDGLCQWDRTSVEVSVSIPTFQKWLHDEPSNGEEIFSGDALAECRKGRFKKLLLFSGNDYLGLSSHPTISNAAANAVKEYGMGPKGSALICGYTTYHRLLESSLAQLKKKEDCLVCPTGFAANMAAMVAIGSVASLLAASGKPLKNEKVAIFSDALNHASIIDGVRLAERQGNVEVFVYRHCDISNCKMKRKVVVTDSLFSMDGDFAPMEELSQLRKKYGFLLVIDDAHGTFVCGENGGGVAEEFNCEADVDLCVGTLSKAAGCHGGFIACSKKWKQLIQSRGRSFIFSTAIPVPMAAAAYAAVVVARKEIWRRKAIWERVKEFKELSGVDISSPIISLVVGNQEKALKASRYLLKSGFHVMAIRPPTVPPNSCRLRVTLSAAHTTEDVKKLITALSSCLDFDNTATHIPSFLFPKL
Experimental: The enzyme activity of the protein was measured at 340 nm using a spectrophotometer (Backman DU series 60 spectrophotometer) adjusted at 30° C. according to a method of Alexeev et al.(Alexeev et al. J. Mol. Biol., 284:401-419, 1998). […] In every reaction solution, the concentration of the protein was 10 μM. L-alanine and pimeroyl CoA were also added into each reaction solution ([…]). Results were analyzed using the Soft-Pac Module kinetics software. Before the analysis, enzyme samples were dialyzed with 20 mM potassium phosphate buffer (pH 7.5) containing 100 μM PLP (pyridoxal 5′-phosphate) at 4° C. for 2 hours. The cuvette containing other substances but the purified protein was used as a control group for the measurement of the enzyme activity.
The changes of reaction speed according to substrate concentration were measured, and then represented by Lineweaver-Burkes plot (see FIG. 4).

[3] = molecular target: KAPA syntase of E. coli (Escherichia coli, UniProt P12998); details: KAPA synthase of E. coli; read-out: Km value to pimeroyl CoA; cited from earlier work
Chain of KAPA syntase of E. coli (P12998 whole entry): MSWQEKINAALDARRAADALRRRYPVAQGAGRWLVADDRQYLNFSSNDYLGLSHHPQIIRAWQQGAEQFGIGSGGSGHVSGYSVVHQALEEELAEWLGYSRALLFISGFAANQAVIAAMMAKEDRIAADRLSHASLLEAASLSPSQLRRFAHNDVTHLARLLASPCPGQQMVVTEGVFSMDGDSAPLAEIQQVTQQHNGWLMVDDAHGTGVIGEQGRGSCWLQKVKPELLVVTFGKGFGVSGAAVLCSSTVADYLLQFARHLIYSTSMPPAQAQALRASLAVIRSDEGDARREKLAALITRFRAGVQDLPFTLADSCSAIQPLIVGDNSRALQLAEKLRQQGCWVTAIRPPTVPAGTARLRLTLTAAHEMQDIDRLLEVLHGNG

[4] = molecular target: KAPA syntase of Bacillus sphaericus (Lysinibacillus sphaericus, UniProt P22806); details: read-out: Km value to pimeroyl CoA; KAPA synthase of Bacillus sphaericus; cited from earlier work
Chain of KAPA syntase of Bacillus sphaericus (P22806 whole entry): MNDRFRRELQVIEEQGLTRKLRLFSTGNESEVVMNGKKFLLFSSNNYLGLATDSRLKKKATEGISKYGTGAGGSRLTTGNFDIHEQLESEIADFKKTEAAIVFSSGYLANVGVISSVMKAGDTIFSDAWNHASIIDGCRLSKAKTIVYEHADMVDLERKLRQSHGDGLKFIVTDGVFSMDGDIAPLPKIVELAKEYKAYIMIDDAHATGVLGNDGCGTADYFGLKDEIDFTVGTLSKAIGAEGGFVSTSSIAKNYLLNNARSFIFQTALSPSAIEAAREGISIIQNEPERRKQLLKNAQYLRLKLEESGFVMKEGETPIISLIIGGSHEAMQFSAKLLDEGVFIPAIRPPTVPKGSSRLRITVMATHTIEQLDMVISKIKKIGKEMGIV

| SMILES | Individual plants grown up [1] | Km ([2]; read-out: Km value) [µM] | Vmax value [2] | Km [3] [µM] | Km [4] [µM] |
| --- | --- | --- | --- | --- | --- |
| O=C(O)CCCC[C@@H]1SC[C@@H]2NC(=O)N[C@@H]21 [biotin] | 16 |  |  |  |  |
| CC(C)(COP(=O)(O)OP(=O)(O)OC[C@H]1O[C@@H](n2cnc3c(N)ncnc32)[C@H](O)[C@@H]1OP(=O)(O)O)[C@@H](O)C(=O)NCCC(=O)NCCSC(=O)CCCCCC(=O)O [pimeroyl CoA, pimeloyl CoA] |  | 0.54 | 7.93 | 500 | 2500 |

Reference: patent US20060168675A1, “Novel polypetide having function of 7-keto-8-aminopelargonic acid synthase of plant and method for inducing growth inhibition and lethality by suppressing expression of the polypeptide” (GENOMINE, INC, priority 2002, published 2006)
